# Results reported in a melting point compilation (Tetko et al.; mined from patent text by program, amines drawn as free bases though some values may be those of a salt).
row,melting point,Structure (SMILES)
1,238 to 246 °C,O=S1(=O)NC(C2CCCCC2)Nc2ccc(-c3cccc(O)c3)cc21 (centres undefined)
2,50 to 60 °C,COc1ncc(C)nc1NS(=O)(=O)c1cccc(Cl)c1Cl
3,195 to 230 °C,O=C1NC(=O)C(N2C(=O)c3ccccc3C2=O)CC1O (centres undefined)
4,188 to 189 °C,CC(C)(C)n1nc(Cc2ccccc2)c2c(N)nc(-c3ccncc3)nc21
5,207 to 210 °C,COc1cc(C(=O)O)c(-c2c(C(=O)O)ccc3c2OCO3)cc1OC
6,142 to 143 °C,COc1ccc(Cn2c(=O)ccc3cnc(N4CCC[C@H]4CO)nc32)cc1Cl
7,130 to 131 °C,CCCCOc1c(CNC(=O)OC(C)(C)C)n(CC(C)C)c(=O)c2ccc(-c3cccs3)cc12
8,185 °C,Cc1nc2ccc(N)cn2c(=O)c1CCCl
9,81 to 82 °C,CC(C)(S)CNC(=O)COCC(=O)O
10,194 to 196 °C,COc1ccc2c(c1)CCC1CC(=O)N(c3ccccn3)N=C21 (centres undefined)
11,183 to 185 °C,CCN/C(=C1\C(=O)c2ccccc2S1=O)c1ccccc1 (centres undefined)
12,87 to 90 °C,Cc1nsc(OCC(F)(F)F)c1S(=O)(=O)NC(C)(C)C
13,68 °C,CC(Oc1ccc(Oc2nc3ccc(Cl)cc3o2)cc1)C(=O)OC[Si](C)(C)C (centres undefined)
14,94 to 96 °C,C[C@H](NC(=O)OCc1ccccc1)C(=O)N1CCC[C@H]1C(=O)NC1CCCCCCC1
15,127 to 128 °C,c1cncc(Nn2ccc3ccccc32)c1
16,112 to 113 °C,O=C(O)CCc1cn(Cc2ccc(OCc3cccnc3)cc2)nc1-c1ccccc1
17,178 to 179 °C,CC(C)Cn1c(C(=O)O)c(-c2ccccc2F)c2cc(OCc3ccccc3)ccc2c1=O
18,88 °C,CC1CCCCN1C(=O)COc1nc(C(Cl)(Cl)Cl)ns1 (centres undefined)
19,114 to 115 °C,Cc1c(-c2ccccc2)oc2c(C(=O)OCCCBr)cccc2c1=O

row,melting point,Structure (SMILES)
1,239 to 240 °C,CC1(c2ccc(O)c([N+](=O)[O-])c2)C(=O)Nc2cc(Cl)cc(Cl)c2C1=O (centres undefined)
2,165 to 166 °C,O=C(O)CCc1cn(Cc2cccc(C(=O)NCc3ccc(C(F)(F)F)cc3)c2)nc1-c1ccccc1
3,158 to 160 °C,NS(=O)(=O)c1cc2c(Cl)csc2s1
4,130 to 131 °C,CCCCN(CCCC)CCCOc1ccc(S(=O)(=O)c2c(C3CCCCC3)cn3ccccc23)cc1
5,195 to 196 °C,Cn1c(C(F)(F)F)cc(=O)n(-c2c(O)cc(F)cc2F)c1=O
6,106 to 107 °C,N#Cc1cccc(C(Cl)(Cl)Cl)c1Cl
7,137 to 139 °C,c1cc(-n2cccc2)cc(-n2cnc3cc(-c4ccco4)ccc32)c1
8,167 to 170 °C,Cc1ccc(C)n1-c1ccc([C@@H](O)CN2C(=O)c3ccccc3C2=O)cn1
9,160 to 162 °C,CN(C)CCCn1cc(Br)c2c3c(c(-c4ccccc4Cl)cc21)C(=O)NC3=O
10,206 to 208 °C,COC(=O)c1ccc2c(=O)n(CC(C)C)c(CNC(=O)OC(C)(C)C)c(-c3cccc(F)c3)c2c1
11,130 to 132 °C,O=c1oc(-c2ccc(OCC3CCCCC3)cc2)cc(O)c1SCCc1ccccc1
12,180 to 182 °C,CC(=O)n1cc(O)c2cc(Br)ccc21
13,152 to 155 °C,NC(C=C(CCCCO)CP(=O)(O)O)C(=O)O (centres undefined)
14,92 to 94 °C,COCCNC(=O)c1cccc(-c2cccc3cc(Cc4cc(F)ccc4F)sc23)c1
15,119 to 120 °C,CCOC(=O)c1c(CCCCn2ccnc2)nc2cc(OC)c(OC)cc2c1-c1ccc(OC)c(OC)c1
16,188 to 190 °C,COc1cc(OC)nc(NC(=O)NS(=O)(=O)c2c([Si](C)(C)C)ccc3c2S(=O)(=O)C(C)C3)n1 (centres undefined)
17,70 to 73 °C,CC(O)(COc1ccc(C(=O)c2ccccc2)cc1)C(F)(F)F (centres undefined)
18,133 to 135 °C,CC(C)n1nc(-c2cc(C#N)cnc2-c2ccccc2)ccc1=O
19,114 to 115 °C,CCc1nc2c(C)cc(C)nc2n1Cc1ccc2c(c1)CCc1ccccc1N2CC(=O)O

row,Structure (SMILES),melting point
1,CNCC(O)c1cccc(F)c1 (centres undefined),63 to 65 °C
